# In patent US20150191469A1, “COMPOUNDS AND METHODS FOR TREATING HIV” (priority 2012, published 2015):
# Test system: HIV
# Test: MT4 assay: antiviral HIV activity (cell protection, cell titer glo readout at 96 hours)
# Type: cell-based
# Conditions: Human immunodeficiency virus 1, MT4, 96 h, MT4 cells, cell titer glo readout at 96 hours, 10 point dose response; read-out: HIV MT4 Assay IC50
# Protocol: Antiviral HIV activity and cytotoxicity values for compounds of the invention from Table 1 were measured in parallel in the HTLV-1 transformed cell line MT-4 based on the method previously described (Hazen et al., 2007, In vitro antiviral activity of the novel, tyrosyl-based human immunodeficiency virus (HIV) type 1 protease inhibitor brecanavir (GW640385) in combination with other antiretrovirals and against a panel of protease inhibitor-resistant HIV (Hazen et al., “In vitro antiviral activity of the novel, tyrosyl-based human immunodeficiency virus (HIV) type 1 protease inhibitor brecanavir (GW640385) in combination with other antiretrovirals and against a panel of protease inhibitor-resistant HIV”, Antimicrob. Agents Chemother. 2007, 51: 3147-3154; and Pauwels et al., “Sensitive and rapid assay on MT-4 cells for the detection of antiviral compounds against the AIDS virus”, J. of Virological Methods 1987, 16: 171-185).
# Luciferase activity was measured 96 hours later by adding a cell titer glo (Promega, Madison, Wis.). Percent inhibition of cell protection data was plotted relative to no compound control. Under the same condition, cytotoxicity of the compounds was determined using cell titer Glo™ (Promega, Madison, Wis.). IC50s were determined from a 10 point dose response curve using 3-4-fold serial dilution for each compound, which spans a concentration range >1000 fold.
# These values are plotted against the molar compound concentrations using the standard four parameter logistic equation:
# y=((Vmax*x̂n)/(K̂n+x̂n))+Y2
# Y2=minimum y n=slope factor
# Vmax=maximum y x=compound concentration [M]
row,IC50 [nM],Compound
1,2.1,"Cc1nc2c(cc(-c3ccnc(-c4ccc5cn(C)nc5c4)c3)n2C)c(-c2cc(F)c3c(c2C)CCCO3)c1[C@H](OC(C)(C)C)C(=O)O (atropisomer, axis not shown) [Example 53]"
2,4.6,"Cc1nc2c(cc(-c3ccnc(-c4ccc5c(cnn5C5CC5)c4)c3)n2C)c(-c2cc(F)c3c(c2C)CCCO3)c1[C@H](OC(C)(C)C)C(=O)O (atropisomer, axis not shown) [Example 54]"
3,410,"Cc1nc2c(cc(-c3ccnc(-c4ccc5[nH]c(=O)[nH]c5c4)c3)n2C)c(-c2cc(F)c3c(c2C)CCCO3)c1[C@H](OC(C)(C)C)C(=O)O (atropisomer, axis not shown) [Example 55]"
4,15,"Cc1nc2c(cc(-c3ccnc(-c4ccc5c(c4)NCC5)c3)n2C)c(-c2cc(F)c3c(c2C)CCCO3)c1[C@H](OC(C)(C)C)C(=O)O (atropisomer, axis not shown) [Example 56]"
5,1.4,"Cc1nc2c(cc(-c3ccnc(-c4ccc5c(cnn5C)c4)c3)n2C)c(-c2cc(F)c3c(c2C)CCCO3)c1[C@H](OC(C)(C)C)C(=O)O (atropisomer, axis not shown) [Example 57]"
6,5.4,"Cc1nc2c(cc(-c3ccnc(-c4cccc5c4cnn5C)c3)n2C)c(-c2cc(F)c3c(c2C)CCCO3)c1[C@H](OC(C)(C)C)C(=O)O (atropisomer, axis not shown) [Example 58]"
7,16,"Cc1nc2c(cc(-c3ccnc(-c4cccc5cnn(C)c45)c3)n2C)c(-c2cc(F)c3c(c2C)CCCO3)c1[C@H](OC(C)(C)C)C(=O)O (atropisomer, axis not shown) [Example 59]"
8,3.7,"Cc1nc2c(cc(-c3ccnc(-c4ccc5c(c4)nnn5C)c3)n2C)c(-c2cc(F)c3c(c2C)CCCO3)c1[C@H](OC(C)(C)C)C(=O)O (atropisomer, axis not shown) [Example 60]"
9,2.9,"Cc1nc2c(cc(-c3ccnc(-c4cnc5[nH]ccc5c4)c3)n2C)c(-c2cc(F)c3c(c2C)CCCO3)c1[C@H](OC(C)(C)C)C(=O)O (atropisomer, axis not shown) [Example 62]"
10,15.4,"Cc1nc2c(cc(-c3ccnc(-n4ccnc4C)c3)n2C)c(-c2cc(F)c3c(c2C)CCCO3)c1[C@H](OC(C)(C)C)C(=O)O (atropisomer, axis not shown) [Example 63]"
11,8.6,"Cc1nc2c(cc(-c3ccnc(-c4cnc5c(cnn5C)c4)c3)n2C)c(-c2cc(F)c3c(c2C)CCCO3)c1[C@H](OC(C)(C)C)C(=O)O (atropisomer, axis not shown) [Example 66]"
12,45,"Cc1nc2c(cc(-c3ccnc(-c4ccn5cc(C(F)(F)F)nc5c4)c3)n2C)c(-c2cc(F)c3c(c2C)CCCO3)c1[C@H](OC(C)(C)C)C(=O)O (atropisomer, axis not shown) [Example 67]"
13,6.4,"Cc1nc2c(cc(-c3ccnc(-c4ccc5[nH]ncc5c4C)c3)n2C)c(-c2cc(F)c3c(c2C)CCCO3)c1[C@H](OC(C)(C)C)C(=O)O (atropisomer, axis not shown) [Example 68]"
14,4.8,"Cc1nc2c(cc(-c3ccnc(-c4ccc(N(C)C)nc4)c3)n2C)c(-c2cc(F)c3c(c2C)CCCO3)c1[C@H](OC(C)(C)C)C(=O)O (atropisomer, axis not shown) [Example 69]"
15,3.1,"Cc1nc2c(cc(-c3ccnc(-c4cnc(N5CCN(C)CC5)nc4)c3)n2C)c(-c2cc(F)c3c(c2C)CCCO3)c1[C@H](OC(C)(C)C)C(=O)O (atropisomer, axis not shown) [Example 70]"
16,4.6,"Cc1nc2c(cc(-c3ccnc(-c4cnc5c(c4)CCCN5)c3)n2C)c(-c2cc(F)c3c(c2C)CCCO3)c1[C@H](OC(C)(C)C)C(=O)O (atropisomer, axis not shown) [Example 72]"
17,645,"Cc1nc2c(cc(-c3ccnc(N4CCn5c(C)nnc5C4)c3)n2C)c(-c2cc(F)c3c(c2C)CCCO3)c1[C@H](OC(C)(C)C)C(=O)O (atropisomer, axis not shown) [Example 79]"
18,21.3,"Cc1nc2c(cc(-c3ccnc(N4CCC(C)CC4)c3)n2C)c(-c2cc(F)c3c(c2C)CCCO3)c1[C@H](OC(C)(C)C)C(=O)O (atropisomer, axis not shown) [Example 80]"
19,2280,"Cc1nc2c(cc(-c3ccnc(NC4COC4)c3)n2C)c(-c2cc(F)c3c(c2C)CCCO3)c1[C@H](OC(C)(C)C)C(=O)O (atropisomer, axis not shown) [Example 81]"
20,47.7,"Cc1nc2c(cc(-c3ccnc(N4CCN(C(=O)c5ccccc5)CC4)c3)n2C)c(-c2cc(F)c3c(c2C)CCCO3)c1[C@H](OC(C)(C)C)C(=O)O (atropisomer, axis not shown) [Example 82]"

row,IC50 [nM],Compound
1,52.5,"Cc1nc2c(cc(-c3ccnc(N4CCN(c5ccccc5)CC4)c3)n2C)c(-c2cc(F)c3c(c2C)CCCO3)c1[C@H](OC(C)(C)C)C(=O)O (atropisomer, axis not shown) [Example 83]"
2,14.7,"Cc1nc2c(cc(-c3ccnc(N4CCN(c5nccs5)CC4)c3)n2C)c(-c2cc(F)c3c(c2C)CCCO3)c1[C@H](OC(C)(C)C)C(=O)O (atropisomer, axis not shown) [Example 84]"
3,12.7,"Cc1nc2c(cc(-c3ccnc(N4CCCN(C5COC5)CC4)c3)n2C)c(-c2cc(F)c3c(c2C)CCCO3)c1[C@H](OC(C)(C)C)C(=O)O (atropisomer, axis not shown) [Example 85]"
4,13.2,"COC1CCN(c2cc(-c3cc4c(-c5cc(F)c6c(c5C)CCCO6)c([C@H](OC(C)(C)C)C(=O)O)c(C)nc4n3C)ccn2)CC1 (atropisomer, axis not shown) [Example 86]"
5,42.8,"Cc1nc2c(cc(-c3ccnc(N4CCC(N(C)C)CC4)c3)n2C)c(-c2cc(F)c3c(c2C)CCCO3)c1[C@H](OC(C)(C)C)C(=O)O (atropisomer, axis not shown) [Example 87]"
6,13.4,"Cc1nc2c(cc(-c3ccnc(N4CCN(c5ccncc5)CC4)c3)n2C)c(-c2cc(F)c3c(c2C)CCCO3)c1[C@H](OC(C)(C)C)C(=O)O (atropisomer, axis not shown) [Example 88]"
7,25,"CC(=O)N1CCN(c2cc(-c3cc4c(-c5cc(F)c6c(c5C)CCCO6)c([C@H](OC(C)(C)C)C(=O)O)c(C)nc4n3C)ccn2)CC1 (atropisomer, axis not shown) [Example 89]"
8,13.3,"Cc1nc2c(cc(-c3ccnc(N4CCN(c5ccccn5)CC4)c3)n2C)c(-c2cc(F)c3c(c2C)CCCO3)c1[C@H](OC(C)(C)C)C(=O)O (atropisomer, axis not shown) [Example 90]"
9,12.2,"Cc1nc2c(cc(-c3ccnc(N4CCN(C5CCCC5)CC4)c3)n2C)c(-c2cc(F)c3c(c2C)CCCO3)c1[C@H](OC(C)(C)C)C(=O)O (atropisomer, axis not shown) [Example 91]"
10,19.6,"Cc1nc2c(cc(-c3ccnc(N4CCN(S(C)(=O)=O)CC4)c3)n2C)c(-c2cc(F)c3c(c2C)CCCO3)c1[C@H](OC(C)(C)C)C(=O)O (atropisomer, axis not shown) [Example 92]"
11,23.9,"Cc1nc2c(cc(-c3ccnc(N4CCN(c5ncccn5)CC4)c3)n2C)c(-c2cc(F)c3c(c2C)CCCO3)c1[C@H](OC(C)(C)C)C(=O)O (atropisomer, axis not shown) [Example 93]"
12,50.8,"Cc1nc2c(cc(-c3ccnc(N4CCCN(C)CC4)c3)n2C)c(-c2cc(F)c3c(c2C)CCCO3)c1[C@H](OC(C)(C)C)C(=O)O (atropisomer, axis not shown) [Example 94]"
13,52.4,"CC(=O)N1CCCN(c2cc(-c3cc4c(-c5cc(F)c6c(c5C)CCCO6)c([C@H](OC(C)(C)C)C(=O)O)c(C)nc4n3C)ccn2)CC1 (atropisomer, axis not shown) [Example 95]"
14,350,"Cc1nc2c(cc(-c3ccnc(N4CCCNCC4)c3)n2C)c(-c2cc(F)c3c(c2C)CCCO3)c1[C@H](OC(C)(C)C)C(=O)O (atropisomer, axis not shown) [Example 96]"
15,16.5,"Cc1nc2c(cc(-c3ccnc(N4CCCN(S(C)(=O)=O)CC4)c3)n2C)c(-c2cc(F)c3c(c2C)CCCO3)c1[C@H](OC(C)(C)C)C(=O)O (atropisomer, axis not shown) [Example 97]"
16,16.2,"Cc1nc2c(cc(-c3ccnc(N4CCCN(C(C)C)CC4)c3)n2C)c(-c2cc(F)c3c(c2C)CCCO3)c1[C@H](OC(C)(C)C)C(=O)O (atropisomer, axis not shown) [Example 98]"
17,14.8,"Cc1nc2c(cc(-c3ccnc(N4C[C@H]5CC[C@@H]4C5)c3)n2C)c(-c2cc(F)c3c(c2C)CCCO3)c1[C@H](OC(C)(C)C)C(=O)O (atropisomer, axis not shown) [Example 99]"
18,14.2,"CC1=CCN(c2cc(-c3cc4c(-c5cc(F)c6c(c5C)CCCO6)c([C@H](OC(C)(C)C)C(=O)O)c(C)nc4n3C)ccn2)CC1 (atropisomer, axis not shown) [Example 100]"
19,67.4,"Cc1nc2c(cc(-c3ccnc(N4CCCN(C(=O)C5CCCC5)CC4)c3)n2C)c(-c2cc(F)c3c(c2C)CCCO3)c1[C@H](OC(C)(C)C)C(=O)O (atropisomer, axis not shown) [Example 101]"
20,45,"Cc1nc2c(cc(-c3ccnc(N4CCCN(C(=O)C(C)C)CC4)c3)n2C)c(-c2cc(F)c3c(c2C)CCCO3)c1[C@H](OC(C)(C)C)C(=O)O (atropisomer, axis not shown) [Example 102]"
